# Reference: patent US20120077801A1, “Chemical Compounds 637” (priority 2007, published 2012)
# What was measured:
# [1] = target: T1, recombinant Human Phosphodiesterase B2 (PDE4B2) (Homo sapiens, UniProt Q07343); assay: Human Phosphodiesterase B2 Alpha Screen Assay; assay type: biochemical; conditions: Alpha Screen cAMP assay, 60 minutes incubation at room temperature, read-out: PDE4B2 pIC50 (converted)
# Protocol: Human Phosphodiesterase B2 Alpha Screen Assay
# The assay uses recombinant Human Phosphodiesterase B2 (PDE4B2) produced in house (PrAZL0133), stored at −20° C. The substrate uses cAMP, part of the Alpha Screen cAMP kit (Perkin Elmer, Cat#6760625M), stored at 4° C. The Alpha Screen kit also includes biotinylated cAMP, acceptor and donor beads.
# The assay additions were as follows: Test compounds and controls were added to white 384-well flat-bottom plates (Greiner, Cat#781075), 0.2 μl in 100% DMSO, followed by 10 μl PDE4B2 in reaction buffer. The reaction buffer constitution was: 50 mM Tris (pH 7.5), 8.3 mM MgCl2, 1.7 mM EGTA and 0.01% (w/v) Brij®35. The enzyme and the compounds were incubated at room temperature for 15 minutes. Then 10 μl cAMP in reaction buffer was added. The assay was stopped after 60 minutes incubation at room temperature by adding 10 μl acceptor beads in detection buffer with 40 mM EDTA. The detection buffer constitution was: 5 mM Tris (pH 7.5), 0.1% (w/v) BSA and 0.1% (v/v) Tween 20. This addition followed by an addition of 10 μl donor beads in detection buffer, with biotinylated cAMP. The plates were then incubated, dark at room temperature, for 5 hours followed by measurement on a Fusion™-α analyser. pIC50 values (presented in Table 14) were determined using X1fit curve fitting using model 205.
# [2] = target: T1, recombinant Human Phosphodiesterase B2 (PDE4B2); assay: Human Phosphodiesterase B2 Radiometric Assay; assay type: biochemical; conditions: for IC50: read-out: PDE4B2 pIC50 (converted)
# Protocol: Human Phosphodiesterase B2 Radiometric Assay
# The assay uses recombinant Human Phosphodiesterase B2 (PDE4B2) produced in house (PrAZL0163), stored at −20° C. This assay is based on the observation that 5′AMP, the product of the reaction catalysed by PDE4, binds preferentially to yttrium silicate SPA beads (Amersham Biosciences, UK) compared to the substrate, cAMP. Compounds at the appropriate concentration were preincubated at 30 C for 30 min. with an assay buffer containing 50 mM HEPES (pH 7.5), 8.3 mM MgCl2, 1.7 mM EGTA, 0.01% (w/v) Brij®35 and 0.1 μg/mL recombinant PDE4B2. The reaction was started by the addition of [3H]cyclic AMP to give a final concentration of 8 nM, and was stopped 20 minutes after the addition of the substrate by the addition of yttrium silicate SPA beads containing 18 mM Zn SO4. Bound [3H]cyclic AMP was measured using a Topcount NXT (Packard Bioscience, UK). pIC50 values (presented in Table 15) were determined using X1fit3 curve fitting, using model 205.
# [3] = recombinant human PDE4B2, [3H]cyclic AMP 8 nM, SPA radiometric assay
# T1 sequence (Q07343 1-564 isoform Q07343-2): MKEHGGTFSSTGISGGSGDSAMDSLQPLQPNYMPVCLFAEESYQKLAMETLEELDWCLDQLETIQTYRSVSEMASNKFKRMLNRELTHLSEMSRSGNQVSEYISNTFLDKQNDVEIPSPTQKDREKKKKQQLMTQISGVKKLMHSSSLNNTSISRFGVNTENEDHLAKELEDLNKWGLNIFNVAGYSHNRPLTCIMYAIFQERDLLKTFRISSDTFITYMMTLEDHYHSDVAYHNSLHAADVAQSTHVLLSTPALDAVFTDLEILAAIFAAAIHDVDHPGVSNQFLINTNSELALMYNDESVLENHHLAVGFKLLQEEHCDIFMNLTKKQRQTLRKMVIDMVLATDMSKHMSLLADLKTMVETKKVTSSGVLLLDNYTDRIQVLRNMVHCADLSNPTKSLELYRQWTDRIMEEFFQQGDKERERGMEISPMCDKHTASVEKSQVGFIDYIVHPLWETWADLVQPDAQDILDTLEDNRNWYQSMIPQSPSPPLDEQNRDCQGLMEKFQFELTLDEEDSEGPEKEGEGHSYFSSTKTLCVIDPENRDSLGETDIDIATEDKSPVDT
smiles,measurement,setting,value
"COC(=O)[C@H]1CC[C@H](n2c(=O)n([C@H]3CC[C@@H](NC(=O)C4CC4)CC3)c(=O)c3cc(F)cnc32)CC1 [Example 8, methyl trans-4-[3-{cis-4-[(cyclopropylcarbonyl)amino]cyclohexyl}-6-fluoro-2,4-dioxo-3,4-dihydropyrido[2,3-d]pyrimidin-1(2H)-yl]cyclohexanecarboxylate]",IC50,[1],50.1 nM
"CN1CCC(n2c(=O)n([C@H]3CC[C@@H](NC(=O)c4cn5cc(F)ccc5n4)CC3)c(=O)c3cc(F)cnc32)CC1 [Example 40, 6-fluoro-N-{cis-4-[6-fluoro-1-(1-methylpiperidin-4-yl)-2,4-dioxo-1,4-dihydropyrido[2,3-d]pyrimidin-3(2H)-yl]cyclohexyl}imidazo[1,2-a]pyridine-2-carboxamide]",PDE4B2 % at 0.32 uM (printed in the pIC50 column),"[2]; at 0.32 uM, recombinant human PDE4B2, radiometric assay",50% at 0.32 uM
"CN(C)CCCn1c(=O)n([C@H]2CC[C@@H](NC(=O)c3cn4cc(F)ccc4n3)CC2)c(=O)c2cc(F)cnc21 [Example 41, N-{cis-4-[1-[3-(dimethylamino)propyl]-6-fluoro-2,4-dioxo-1,4-dihydropyrido[2,3-d]pyrimidin-3(2H)-yl]cyclohexyl}-6-fluoroimidazo[1,2-a]pyridine-2-carboxamide]",IC50,[2]; [3],158 nM
O=C(NC1CN2CCC1CC2)c1cccc(-n2c(=O)n([C@H]3CC[C@@H](NC(=O)c4cn5cc(F)ccc5n4)CC3)c(=O)c3cc(F)cnc32)c1 (some centres unmarked) [Example 42],PDE4B2 pIC50,[2]; [3],7.7
"O=C(N[C@H]1CC[C@@H](n2c(=O)c3cc(F)cnc3n(-c3cccc(OCCN4CCOCC4)c3)c2=O)CC1)c1cn2cc(F)ccc2n1 [Example 43, 6-fluoro-N-{cis-4-[6-fluoro-1-[3-(2-morpholin-4-ylethoxy)phenyl]-2,4-dioxo-1,4-dihydropyrido[2,3-d]pyrimidin-3 (2H)-yl]cyclohexyl}imidazo[1,2-a]pyridine-2-carboxamide]",IC50,[2]; [3],1 nM
